Laboratory results taken from US20100003311A1, “Antimicrobial Composition” (priority 2006, published 2010).

Assays:
[1] = test system: human keratinocytes; experiment: β-defensin production in culture medium containing human keratinocytes contacted with the compositions (FIG. 1); format: cell-based; settings: compared with lipopolysaccharide
Text: The data was obtained by measuring β-defensin production in culture medium containing human keratinocytes when contacted with the various compositions.

[2] = test system: epithelial surfaces (both mucosa and skin); experiment: release of β-defensin 2 by epithelial surfaces
Text: The stimulation of β-defensin 2 by hyaluronic acid has been observed by the patent inventor. […] The application of hyaluronic acid to the skin is thought to increase the amount of innate immunity antibiotic peptides such as β-defensin 2 that are present and therefore provide an increased level of innate immunity. The stimulation of defensin and other innate immunity antibiotic peptide expression in sites of skin and mucosa injury may therefore facilitate tissue repair by providing innate immunity and decreasing the possible bacterial contamination and colonisation of tissues by opportunistic pathogens.

## hyaluronic acid
[1]
  stimulation of β-defensin production: stimulates β-defensin production by human keratinocytes significantly, and considerably more than lipopolysaccharide
[2]
  release of β-defensin 2: able to determine the release of β-defensin 2 by epithelial surfaces
